Measurements: patent USRE32935E, “Non-toxic organotin stabilizers for vinyl chloride polymers” (M&T Chemicals, Inc., priority 1985, dated 1989)
Like-named read-outs stand apart in the source and are kept apart here.

Experiments:
[1] = migration from milled/pressed polyvinyl chloride sheet into extractants (colorimetric tin analysis); type: physicochemical; settings: 10 days, 40° C; distilled water, 3% acetic acid, peanut oil, 10% ethanol; 1.5 parts stabilizer
Protocol: A mixture containing 100 parts of a commercially available vinyl chloride homopolymer(Solvic 223), 0.02 part of a half glycol ester -half calcium soap of montanic acid (available as Hoechst Wax OP) together with 1.5 parts of mono-n-octyltin-S,S',S"-tris(isooctylmercaptoacetate) was blended by placing the components on a 2-roll mill wherein the roll temperature was between 160° and 170° C. During the three minute milling period a continuous sheet formed around one of the rollers and was removed. The sheet measured 1.3 m.m. in thickness and about 300 cm.^2 in area. The sheet was pressed at a temperature of 170° C. to obtain a thickness of 1.2 m.m. The total pressing time, including a two minute preheating period, was five minutes. Square samples measurng 30 cm.^2 in total surface area were immersed in one of the extractants for 10 days, during which time the temperature of the extractant was maintained at 40° C. The extractants employed were distilled water, a 3% aqueous solution of acetic acid, peanut oil and a 10% by weight aqueous solution of ethanol. […] The quantity of peanut oil was 30 c.c.
The migration of stabilizer from the polyvinyl chloride sample into the extractant was determined by measuring the concentration of tin in the extractant using colormetric analysis of the tin - pyrocatechol violet complex. […]

[2] = tested on: beagle dogs; assay: 13 week feeding study in beagle dogs; type: in vivo, dog
Protocol: A second feeding study was conducted for a period of 13 weeks using beagle dogs to determine the maximum concentration of the mono-n-octyltin mercaptoacetic acid esters of this invention which can be present in the food of these animals without causing any observable toxicological effect. This concentration level is referred to as the "no-effect level" by the United States Food and Drug Administration. A stabilizer of this invention mono-n-octyltin S,S',S"-tris(isooctylmercaptoacetate) was added to the food consumed by the dogs in amounts of 0, 100, 300 and 1,000 parts per million. […] This level of toxicity is considered to be unexpectedly low for an organotin compound.
The criteria employed to determine the absence of toxicological effects included general appearance, health, growth and food intake; blood analyses for enzyme activity and serum protein; kidney damage by urine analysis; change in weight of internal organs and presence of the tin compound in the kidneys, bones, brain, liver and blood.

[3] = tested on: albino rats; assay: acute oral median lethal dose in young male albino rats; type: in vivo, rat
Protocol: Young albino rats were used as the test animals. All animals were kept under observation for five days prior to experimental use, during which period they were checked for general physical health and suitability as test animals. The animals were housed in stock cages and were permitted a standard laboratory diet plus water ad libitum, except during the 16-hour period immediately prior to oral intubation, when food was withheld.
Selected groups of four male albino rats each were administered the undiluted test material at dose levels of 900, 1350, 2,025 and 3,038 mg. per kilogram of body weight. All doses were administered directly into the stomachs of the rats using a hypodermic syringe equipped with a ball-tipped intubating needle.
After oral administration of the test material, the rats were housed individually in suspended, wire-mesh cages and observed for the following 14 days. A necropsy was conducted on any animal which died during the study and on all animals sacrificed at the end of the 14-day observation period.
The acute oral median lethal dose (LD50) was calculated using the techniques of Weil, Thompson and Thompson and Weil as reported in the following references: […]

[4] = extraction of tin from blow molded vinyl chloride polymer bottles; type: physicochemical; settings: 49° C
Protocol: A number of 16 ounce (475 cc) capacity cylindrical bottles were prepared by blow molding using the following formulation: […]
The three stabilizers evaluated were n-octyltin-S,S',S"-tri(isooctyl mercaptoacetate), di-n-octyltin-S,S'-bis(isooctyl mercaptoacetate) and a mixture containing equal parts by weight of these two compounds.
The bottles were filled with the desired extractant and then placed in an oven maintained at a temperature of 49° C. for the time periods specified in the following table. A portion of the contents of the bottle was then analyzed to determine the concentration of tin.

[5] = relative acute toxicity of the isooctylmercaptoacetate derivatives; type: in vivo
Text: This is contrary to the generally accepted, although inaccurate, generalization that a monoalkyltin compound is less toxic than the corresponding di- and trialkyltin compounds. […] This finding directly contradicts data concerning the relative toxicities of mono-, di- and triorganotin compounds that were published prior to March, 1973, the filing date of Applicant's earliest application disclosing the present stabilizer compositions.

[6] = tested on: rats; settings: force-feeding, table of Neumann; cited from earlier work
[7] = compared with di- and trioctyltin chlorides, cited from earlier work
[8] = prior art statements; cited from earlier work
[9] = 3% Acetic Acid (aqueous), 24 hours
[10] = 3% Acetic Acid (aqueous), 48 hours
[11] = 3% Acetic Acid (aqueous), 72 hours

CCCCCCC[CH2][Sn]([S]CC(=O)OCCCCCC(C)C)([S]CC(=O)OCCCCCC(C)C)[S]CC(=O)OCCCCCC(C)C [A, mono-n-octyltin-S,S',S"--tris(isooctyl mercaptoacetate)]
amount of stabilizer extracted [1]: ≤ 0.05 mg. per square decimeter | no-effect level ([2]; beagle dogs, 13 weeks, in food): 300 parts per million | no effect level (in words) ([2]; long term feeding studies): sufficiently low | acute oral median lethal dose (LD50) ([3]; male albino rats, oral intubation, undiluted, 14 days observation): 2.48 g. per kilogram of weight | LD50 relative to other conventional organotin stabilizers (in words) ([3]; vs other conventional organotin compounds employed as non-toxic stabilizers): considerably higher than the values for other conventional organotin compounds | Tin Content [4, 9]: 0.02 ppm | Tin Content [4, 10]: 0.03 ppm | Tin Content [4, 11]: 0.02 ppm | Tin Content ([4]; 8% Ethanol (aqueous), 24 hours): 0.00 ppm | Tin Content ([4]; 50% Ethanol, 24 hours): 0.01 ppm | Tin Content ([4]; 50% Ethanol, 48 hours): 0.02 ppm | Tin Content ([4]; 50% Ethanol, 72 hours): 0.02 ppm | Tin Content ([4]; Distilled Water, 72 hours): 0.00 ppm | Tin Content ([4]; Distilled Water, 96 hours): 0.00 ppm | Tin Content ([4]; Distilled Water, 120 hours): 0.00 ppm | Tin Content ([4]; Heptane, 6 hours): 0.02 ppm | Tin Content ([4]; Heptane, 8 hours): 0.03 ppm | Tin Content ([4]; Heptane, 10 hours): 0.03 ppm | relative acute toxicity (in words) ([5]; isooctylmercaptoacetate derivatives, mono- vs di- and tri-n-octyltin): the least toxic | toxicity relative to corresponding di-n-octyltin compound (in words) ([5]; vs di-n-octyltin compound of Gloskey patent): less toxic than the corresponding di-n-octyltin compound

CCCCCCC[CH2][Sn]([CH2]CCCCCCC)([S]CC(=O)OCCCCCC(C)C)[S]CC(=O)OCCCCCC(C)C [B, di-n-octyltin-S,S'--bis(isooctyl mercaptoacetate), reference compound]
LD50 (lethal dose for 1/2 the population) [6]: 1975 mg per kilogram of body weight | Tin Content [4, 9]: 0.00 ppm | Tin Content [4, 10]: 0.00 ppm | Tin Content [4, 11]: 0.00 ppm | Tin Content ([4]; 8% Ethanol (aqueous), 24 hours): 0.00 ppm | Tin Content ([4]; 50% Ethanol, 24 hours): 0.03 ppm | Tin Content ([4]; 50% Ethanol, 48 hours): 0.05 ppm | Tin Content ([4]; 50% Ethanol, 72 hours): 0.03 ppm | Tin Content ([4]; Distilled Water, 72 hours): 0.00 ppm | Tin Content ([4]; Distilled Water, 96 hours): 0.00 ppm | Tin Content ([4]; Distilled Water, 120 hours): 0.00 ppm | Tin Content ([4]; Heptane, 6 hours): 0.03 ppm | Tin Content ([4]; Heptane, 8 hours): 0.02 ppm | Tin Content ([4]; Heptane, 10 hours): 0.02 ppm

CCCCCCC[CH2][Sn]([Cl])([Cl])[Cl] [monooctyltin trichloride]
acute oral toxicity (relative, in words) [7]: greater than the toxicity of either dioctyltin dichloride or trioctyltin chloride | acute oral toxicity (relative, in words) ([7]; listed as mono-n-octyltin trichloride): significantly more severe than the corresponding di- or tri-n-octyltin chlorides

[Cl][Sn][Cl] [stannous chloride]
toxicity (in words) [8]: relatively little, if any, toxicity

bis(tri-n-octyltin) sulfate
LD50 (lethal dose for 1/2 the population) [6]: greater than 6,000 mg per kilogram of body weight

di-n-octyltin maleate
LD50 (lethal dose for 1/2 the population) [6]: 4,500 mg per kilogram of body weight
